One experiment deals with T1, human 17β-HSD 1 (Homo sapiens, UniProt P14061).
T1 construct: Full length cDNAs of several 17β-HSDs type 1 originating from different species were cloned; made in house; host or cells: E.coli BL21 DE3 Codon Plus RP
T1 sequence (P14061 1-328): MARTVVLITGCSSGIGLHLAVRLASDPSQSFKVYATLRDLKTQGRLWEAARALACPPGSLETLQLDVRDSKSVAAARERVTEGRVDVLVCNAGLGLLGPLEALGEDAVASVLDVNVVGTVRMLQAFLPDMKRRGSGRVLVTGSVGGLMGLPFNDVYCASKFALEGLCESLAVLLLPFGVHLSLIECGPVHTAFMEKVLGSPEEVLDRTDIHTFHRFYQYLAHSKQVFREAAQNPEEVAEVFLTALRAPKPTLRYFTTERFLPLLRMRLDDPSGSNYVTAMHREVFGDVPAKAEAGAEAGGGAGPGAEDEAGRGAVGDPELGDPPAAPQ
As to the kind of experiment: In vitro enzymatic activity, recombinant human 17β-HSD 1 (estrone reduction). The note with it: for specificity for human 17β-HSD 1 over human 17β-HSD 2, 4, 5 and 7 (in words) / inhibition of the human 17β-HSD 1 reductive activity (in words): 2 µM; for specificity for human 17β-HSD 1 over human 17β-HSD 2, 4, 5 and 7 (in words): Figure 2, Table 3; for inhibition at 2 µM: human 17β-HSD 1, 2 µM compound, 15 nM 3H-estrone, NADPH, pH 6.6, read-out: Observed % inhibition; for inhibition of the human 17β-HSD 1 reductive activity (in words): Figure 2; for pIC50: Human 17β-HSD 1, 0.005 µM to 5 µM inhibitor. In kind it is biochemical. An excerpt: (§1) Full length cDNAs of several 17β-HSDs type 1 originating from different species were cloned either into the pQE30 vector (human 17β-HSD 1, coding for acc. no. NP_000404) for expression as His-Tag protein or into a modified pGex-2T vector [63] (mouse 17β-HSD 1, acc. no. NP_034605; rat 17β-HSD 1, acc. no. NP_036983; marmoset 17β-HSD 1, acc. no. AAG01115; porcine 17β-HSD 1, acc. no. NP_001121944) for expression as GST-fusion proteins. The marmoset 17β-HSD 1 enzyme sequence was updated by the missing N-terminal part (AF272013) and the new porcine sequence was submitted to GenBank (NP_001121944). Human 17β-HSDs 2, 4, 5 (AKR1C3, the latter kindly provided by Dr. T. Penning) and 7 were all cloned into the modified pGEX-2T vector. For 17β-HSD 4 only the SDR-domain converting the steroids was subcloned. Plasmids were transformed into E.coli BL21 DE3 Codon Plus RP (Stratagene) and enzyme expression was induced by 0.5 mM IPTG. After 4h incubation at 37°C with continuous shaking bacteria were pelleted by centrifugation at 10.000×g. Pellets were stored until use at −20°C.
(§2) The bacteria containing recombinant enzymes were resuspended in PBS and enzymatic assays were performed in 100 mM sodium phosphate buffer at pH 6.6 for the reductive reaction and at pH 7.7 for the oxidative reaction. […] All substrates were purchased from NEN/Perkin Elmer. The cofactors NADPH (Sigma; for reductive reactions) and NAD^+ (Serva, for oxidative reactions) were used at final concentrations of 0.5 mg/ml. […] The incubation at 37°C was stopped with 0.21 M ascorbic acid in methanol∶acetic acid 99∶1 (v∶v) after the time needed to convert approximately 30% of the substrate in a control assay with 1% DMSO, without inhibitor candidates. […] The solvent used was acetonitrile∶water (43∶57, v∶v) at a flow rate of 1 ml/min. Radioactivity was detected by online-scintillation counting (Berthold LB506D) after mixing with ReadyFlowIII (Beckman). Conversion was calculated from integration of substrate and product peaks. […] All assays were run in duplicates of two independent experiments and mean values are reported. The IC50 values were determined by the One Ligand Binding model of SigmaPlot kinetics module.

For experiment [1], the system named is 17β-HSD 1 orthologs of five species. The experiment in a line: In vitro enzymatic activity, 17β-HSD 1 orthologs of five species taken together. Format: biochemical, human, marmoset, mouse, pig, rat. To be noted: average over the 17β-HSD 1 orthologs of the species; 2 µM compound.
In another experiment the target is T2, human 17β-HSD 5 (AKR1C3) (Homo sapiens, UniProt P42330).
T2 construct: made in house; host or cells: E.coli BL21 DE3 Codon Plus RP
T2 sequence (P42330 1-323): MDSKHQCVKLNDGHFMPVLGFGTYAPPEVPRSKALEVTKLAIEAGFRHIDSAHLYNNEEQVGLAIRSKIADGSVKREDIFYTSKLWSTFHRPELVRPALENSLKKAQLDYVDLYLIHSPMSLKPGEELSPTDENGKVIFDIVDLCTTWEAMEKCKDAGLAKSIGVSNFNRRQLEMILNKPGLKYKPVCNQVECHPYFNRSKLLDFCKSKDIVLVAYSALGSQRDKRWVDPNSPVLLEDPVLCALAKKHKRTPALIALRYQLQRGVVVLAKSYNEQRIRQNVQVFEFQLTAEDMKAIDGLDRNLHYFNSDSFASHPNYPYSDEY
The experiment in a line: In vitro enzymatic activity, recombinant human 17β-HSD 5 (androstenedione reduction). The note with it: 2 µM compound, 21 nM 3H-androstenedione, NADPH, pH 6.6. Format: biochemical.
From the text: as §1, §2

For a further experiment, the target named is T3, marmoset 17β-HSD 1 (Callithrix jacchus, UniProt Q9GME2).
T3 sequence (Q9GME2 1-314): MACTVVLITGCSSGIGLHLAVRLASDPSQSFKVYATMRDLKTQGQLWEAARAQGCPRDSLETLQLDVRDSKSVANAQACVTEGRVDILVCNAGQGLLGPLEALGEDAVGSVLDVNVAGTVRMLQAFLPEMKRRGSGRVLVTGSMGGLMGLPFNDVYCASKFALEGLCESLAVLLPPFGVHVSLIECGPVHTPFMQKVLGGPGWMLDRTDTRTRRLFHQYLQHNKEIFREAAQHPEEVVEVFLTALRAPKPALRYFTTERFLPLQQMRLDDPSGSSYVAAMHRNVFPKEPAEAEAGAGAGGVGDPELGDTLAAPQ
As to the kind of experiment: In vitro enzymatic activity, recombinant marmoset 17β-HSD 1. The note with it: for inhibition at 2 µM: marmoset 17β-HSD 1, 2 µM compound, 15 nM 3H-estrone, read-out: Observed % inhibition. Format: biochemical.
From the text: as §1, §2

A further experiment has as its target T4, porcine 17β-HSD 1 (Sus scrofa, UniProt B2X0A4).
T4 sequence (B2X0A4 1-321): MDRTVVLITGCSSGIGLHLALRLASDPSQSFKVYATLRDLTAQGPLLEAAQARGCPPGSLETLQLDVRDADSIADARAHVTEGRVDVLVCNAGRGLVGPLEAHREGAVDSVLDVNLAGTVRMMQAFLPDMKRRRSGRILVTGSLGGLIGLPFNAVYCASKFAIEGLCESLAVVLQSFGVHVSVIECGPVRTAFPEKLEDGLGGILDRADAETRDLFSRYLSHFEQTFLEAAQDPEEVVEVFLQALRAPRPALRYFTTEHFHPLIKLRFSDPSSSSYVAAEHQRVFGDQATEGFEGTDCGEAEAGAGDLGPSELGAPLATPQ
The experiment in a line: In vitro enzymatic activity, recombinant porcine 17β-HSD 1. To be noted: for pIC50: Pig 17β-HSD 1, 0.005 µM to 5 µM inhibitor; for inhibition at 2 µM: read-out: Observed % inhibition. Format: biochemical, pig.
From the text: as §1, §2

Setting [2] is: pig 17β-HSD 1, 2 µM compound, 15 nM 3H-estrone.

SMILES strings stand for the structures. pIC50: −log10 of the molar value. “Also recorded” adds a separate entry of the source. Like-named read-outs stand apart in the source and are kept apart here.

`C[C@]12CC[C@@H]3c4ccc(O)cc4CC[C@H]3[C@@H]1[C@@H](CNC(=O)c1ccc(F)cc1)CC2=O` [Compound 1]: the “specificity for human 17β-HSD 1 over human 17β-HSD 2, 4, 5 and 7 (in words)” value on human 17β-HSD 1 is listed as “most specific inhibitors”. Further, the inhibition (as a rule, the drop in the measured response relative to a control, in per cent) at 2 µM was 63.6% on human 17β-HSD 1 and 30.6% on marmoset 17β-HSD 1. Besides, the “Observed % inhibition, average” value in experiment [1] was 42.1%. Besides, the Observed % inhibition at human 17β-HSD 5 (AKR1C3) is given as 21.6%.
Regarding `C[C@]12CC[C@@H]3c4ccc(O)cc4CC[C@H]3[C@@H]1[C@@H](CCCC(=O)N1CCOCC1)CC2=O` [Compound 2], the “inhibition of the human 17β-HSD 1 reductive activity (in words)” value at human 17β-HSD 1 was “high inhibition”. For the same compound, the “specificity for human 17β-HSD 1 over human 17β-HSD 2, 4, 5 and 7 (in words)” value at human 17β-HSD 1 is recorded as “very low inhibition of the other human 17β-HSDs; also recorded: most specific inhibitors”. In addition, the pIC50 – broadly, −log10 of the IC50, conventionally taken in molar units – at human 17β-HSD 1 was 7.06; at porcine 17β-HSD 1, 6.34. Also, the inhibition at 2 µM on human 17β-HSD 1 amounted to 94.7%; at marmoset 17β-HSD 1, 60.3%; on porcine 17β-HSD 1 (setting [2]) it was 67%. The “Observed % inhibition, average” value in experiment [1] was 52.2%. Moreover, the Observed % inhibition on human 17β-HSD 5 (AKR1C3) was found to be 33.9%.
In the case of `COc1ccc(-c2cn(CCC[C@H]3CC(=O)[C@@]4(C)CC[C@@H]5c6ccc(O)cc6CC[C@H]5[C@H]34)nn2)cc1` [Compound 4], the inhibition at 2 µM at human 17β-HSD 1 was found to be 95.8%; at marmoset 17β-HSD 1 it was 85.2%; at porcine 17β-HSD 1, 66.2%. Moreover, in experiment [1], the “Observed % inhibition, average” value is on record as 57.0%. Further, the Observed % inhibition on human 17β-HSD 5 (AKR1C3) was determined as 93.5%.
Regarding `Cc1cnc(NC(=O)CC[C@@H]2CC(=O)[C@@]3(C)CC[C@@H]4c5ccc(O)cc5CC[C@H]4[C@H]23)s1` [Compound 3], on human 17β-HSD 1, the “inhibition of the human 17β-HSD 1 reductive activity (in words)” value is on record as “high inhibition”; the “specificity for human 17β-HSD 1 over human 17β-HSD 2, 4, 5 and 7 (in words)” value is given as “very low inhibition of the other human 17β-HSDs; also recorded: most specific inhibitors”; the pIC50 is 8.89; the inhibition at 2 µM worked out at 97.9%. In addition, in experiment [1], the “Observed % inhibition, average” value was 66.7%. The Observed % inhibition on human 17β-HSD 5 (AKR1C3) is reported as 29.3%. At marmoset 17β-HSD 1, the pIC50 was 7.02 and the inhibition at 2 µM is 98.5%. In addition, the pIC50 on porcine 17β-HSD 1 was 9.47. For the same compound, the inhibition at 2 µM on porcine 17β-HSD 1 (setting [2]) amounted to 105%.
Take `C[C@]12CC[C@@H]3c4ccc(O)cc4CC[C@H]3[C@@H]1C[C@H](CC(=O)NCc1cccnc1)C2=O` [Compound 5, reference compound]: the values for the inhibition at 2 µM on human 17β-HSD 1, on marmoset 17β-HSD 1 and at porcine 17β-HSD 1 (setting [2]) were 100%, 45.6% and 95.7%, respectively. The “Observed % inhibition, average” value in experiment [1] amounted to 48.4%. Besides, the Observed % inhibition on human 17β-HSD 5 (AKR1C3) amounted to 50.6%.

The values are drawn from article PMC2882332, “Species Used for Drug Testing Reveal Different Inhibition Susceptibility for 17beta-Hydroxysteroid Dehydrogenase Type 1” (PLoS ONE, 2010).
